From US8518889B2, “Method of treating cancer with antibodies against long-form leukotriene B4 receptor BLT2” (Korea University Research & Business Foundation, priority 2007, dated 2013)

Experiments:
[1] = tested on: 253J-BV cell line; experiment: Western blot of apoptotic proteins (PARP, Caspase-9, Bax); assay type: cell-based, human; conditions: 48 hr
Experimental: Cells were washed with cold PBS and cells were scraped into lysis buffer [20 mM Tris-HCl (pH 7.5), 15 OmM NaCl, 0.5% NP-40, 5 mM EDTA, 1% triton X-100 added protease inhibitors] at 4° C. Harvested protein samples were heated at 95° C. for 5 min and then subjected to SDS-PAGE on acrylamide gels, followed by transfer to polyvinylidene difluoride membranes for 90 min at 100 V. The membranes were blocked for 1 h with Tris-buffered saline (TBS) containing 0.05% (vol/vol) Tween 20 plus 5% (wt/vol) nonfat dry milk and then incubated with appropriate antibodies (PARP, 1:2000 dilution, Caspase-9, 1:2000 dilution, Bax 1:2000 dilution, actin, 1:3000 dilution) in 5% nonfat milk overnight at 4° C. Then membrane bound protein-antibody complex incubated for 2 hr with HRP-conjugated secondary antibody before development with an enhanced chemiluminescence kit (Amersham Biosciences, UK). The poly ADP-ribose polymerase (PARP) cleavage have been well established as important indices of apoptosis.

[2] = tested on: breast cancer cell line, T47D (ER+), MDA-MB-468 (ER−), MDA-MB-453 (ER−); experiment: cell growth assay (trypan blue exclusion); assay type: cell-based, human; conditions: LY255283 5, 10 μM; U75302 0.5, 1 μM; 24, 48, 72 hr
Experimental: (§1) To investigate the effect of BLT2 antagonist, LY255283 and BLT1 antagonist, U75302 on growth of breast cancer, breast cancer cell line, T47D (ER+), MDA-MB-468 (ER−), MDA-MB-453 (ER−) and normal IMR-90 cells were used. Cells were treated with LY255283 and U75302 in a dose-dependent manner and analyzed for cell number using the trypan blue dye exclusion method. Cells were plated at a density of 0.5×10^5 or 5×10^5 cells/well on 12-well plate. After 24 h, cells were incubated in media containing 0.5% serum for 3 hr. Then, cells were treated with U75302 (0.5, 1 μM), LY255283 (5, 10 μM) and incubated at 37° C. for indicated time (24, 48, and 72 hr). To measure the growth of cell, the treated cells were then trypsinized at each time point, and counted by the trypan-blue exclusion method

[3] = tested on: normal IMR-90 cells; experiment: cell growth assay (trypan blue exclusion); assay type: cell-based; conditions: LY255283 5, 10 μM; U75302 0.5, 1 μM; 24, 48, 72 hr
Experimental: as §1

[4] = tested on: 253J-BV cells; experiment: cell cycle analysis (PI, flow cytometry); assay type: cell-based, human; conditions: 48 hr, RPMI 1640 with 0.5% FBS
Experimental: The cells grown in 6-well plate were stimulated with 5 μM and 10 μM LY255283, 1 μM U75302 for 48 h in RPMI 1640 containing 0.5% FBS. The cells which were collected by brief trypsinization were fixed overnight with 70% ethanol at 4° C. The cells were resuspended in PBS containing RNase A (100 μg/ml) and incubated for 30 min at 37° C. The cells were stained with propidium iodide (50 μg/ml) (Sigma). Acquisition and analysis was performed by FACS using Cell Quest Alias software (BD Bioscience). […] Cells were treated with BLT antagonist for 48 hours and the cell cycle population was measured by flow cytometry. In brief, cells were plated in 6 well plate and then treated with LY255283, U75302 for 48 hr. At the end of the treatment, the cells were harvested and then centrifuged. The cells fixed in ice-cold 70% ethanol for 24 hr and centrifuged. The pellet were resuspended in 0.5 ml phosphate-buffered saline (PBS) and incubated with Pl 1 mg/ml treatment for 15 min.

[5] = tested on: MDA-MB-468 cells; assay type: cell-based, human; conditions: 48 h
Experimental: Cells were plated a density of 2×10^6 cells/plate in 100-mm plate. After 24 hr, cells incubated in media containing serum-free for 3 hr. Then, cells were treated with U75302 (0.5, 1 μM), LY255283 (5, 10 μM) and incubated at 37° C. for 48 h. Both attached and detached cells were collected and resuspended in a lysis buffer (20 mM Tris/HCl, pH 8.0, 0.1 mM EDTA, 1% SDS, and 0.5 mg/ml proteinase K) and then incubated at 50° C. for overnight. DNA was extracted with phenol/chloroform.

[6] = tested on: 253J-BV cells; experiment: [3H]-thymidine incorporation assay; assay type: cell-based, human; conditions: for inhibition of thymidine incorporation / cell proliferation: 48 hr
Experimental: Cells were seed in 96-well plate at the density of 1.0×10^4/well. After 24 hr incubation in RPMI 1640 supplemented with 10% FBS, the media was replaced with RPMI 1640 containing 0.5% FBS for 12 hr. After cells were treated with different concentration BLT antagonists. Then [^3H]-thymidine (1 μCi/ml) (PerkinElmer Life Sciences) was added at 12 hr after antagonists treatment and after 36 hr of further incubation, cells were harvested on the filtermat (PerkinElmer Life Science) and filtermat was dried and packaged in the sample bag (PerkinElmer Life Science). Finally, Betaplate scint (PerkinElmer Life Science) was added to the filtermat, and the radioactivity was counted in a liquid scintillation counter (MicroBeta, Wallac/PerkinElmer). […] LY255283 inhibited proliferation by at least 50% at a concentration of 10 μM at 48 hr.

[7] = tested on: MDA-MB-468 cells; experiment: Western blotting of caspase-9 and PARP; assay type: cell-based, human; conditions: 48 hr
Experimental: Cells were plated a density of 2×10^6 cells/plate in 100-mm plate. After 24 h, cells incubated in media containing serum-free for 3 hr. Then, cells were treated with U75302 (0.5, 1 μM), LY255283 ([…]) and incubated at 37° C. for 48 hr. […] Proteins were separated by SDS-PAGE and transferred onto a nitrocellulose membrane. The membrane was blocked with 5% nonfat dry milk in Tris-buffered saline and then incubated with primary antibodies against caspase-9, PARP for 1 h at room temperature. Blots were developed with a peroxidase-conjugated secondary antibody and proteins were visualized by enhanced chemiluminescence (ECL) procedures (Amersham, USA) according to the manufacturer's recommendation

Row | SMILES | pro-apoptotic protein Bax level ([1]; 10 μM) | apoptosis induction (PARP cleavage) [1] | pro-caspase 9 level [1] | growth of breast cancer cell lines [2] | growth of normal IMR-90 cells [3] | cell cycle [4] | DNA fragmentation [5] | inhibition of thymidine incorporation / cell proliferation [6] | inhibition at 10 µM ([6]; Homo sapiens, 10 μM at 48 hr, read-out: inhibited proliferation) [%] | activation of caspase-9 and PARP cleavage [7] | level of protein (Western blot) compared with control [1]
1 | CCc1cc(C(C)=O)c(O)cc1OCCCCCC(C)(C)c1nnn[nH]1 [LY255283, 1-[5-ethyl-2-hydroxy-4-[[6-methyl-6-(1H-tetrazol-5-yl)heptyl]oxy]phenyl]-ethanone] | significant increased | Apoptosis induction was observed | reduction of pro-caspase 9 | significantly inhibits the growth | did not affect | arresting cell cycle at sub-G1 in dose dependent manner | laddering pattern characteristic of apoptosis | concentration dependent inhibition | ≥ 50 | dose-dependent activation of caspase-9 and cleavage of PARP | –
2 | CCCCC/C=C\C[C@@H](O)/C=C/c1cccc(C[C@@H](O)CCCCO)n1 [U75302] | – | – | – | had no effect on growth | had no effect on growth | not effect | did not induce DNA fragmentation | not effect | – | did not affect on caspase-9 activation and PARP cleavage | no significant change
